Experiments:
Assay type in all cases: in vivo
[1] = system: redroot pigweed (Amaranthus retroflexus, AMARE); test: Pre-emerge test, greenhouse herbicide activity screening; settings: pre-emerge, 14 days after application, scale 0-100
Outline: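 Rating: 0–100 visual injury, 14 DAA. Application: acetone, 187 l/ha, 15–1000 g ai/ha, flat-fan track sprayer with nozzle 40–45 cm above soil or canopy. Post-emerge runs used 0.25% v/v surfactant on 2–3 leaf plants.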

[2] = system: barnyardgrass (Echinochloa crus-galli, ECHCG); test: as above; settings: pre-emerge, 14 days after application, scale 0-100
Outline: (§1)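 Sandy loam pots; pre-emerge: sown 1 d pre-spray, surface-watered after, then bottom-watered. Post-emerge: sown 8–21 d before, 2–3 leaf stage, + 0.25% v/v NIS, bottom-watered. Acetone, 187 l/ha track spray, 15–1000 g ai/ha. 0–100 injury score, day 14.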

[3] = system: green foxtail (Setaria viridis, SETVI); test: as above; settings: pre-emerge, 14 days after application, scale 0-100
Outline: as §1

[4] = system: ivyleaf morningglory (Ipomoea hederacea, IPOHE); test: as above; settings: pre-emerge, 14 days after application, scale 0-100
Outline: as §1

[5] = system: johnsongrass (Sorghum halepense, SORHA); test: as above; settings: pre-emerge, 14 days after application, scale 0-100
Outline: as §1

[6] = system: lambsquarters (Chenopodium album, CHEAL); test: as above; settings: pre-emerge, 14 days after application, scale 0-100
Outline: as §1

[7] = system: large crabgrass (Digitaria sanguinalis, DIGSA); test: as above; settings: pre-emerge, 14 days after application, scale 0-100
Outline: as §1

[8] = system: sicklepod (Cassia obtusifolia, CASOB); test: as above; settings: pre-emerge, 14 days after application, scale 0-100
Outline: as §1

[9] = system: velvetleaf (Abutilon theophrasti, ABUTH); test: as above; settings: pre-emerge, 14 days after application, scale 0-100
Outline: as §1

[10] = system: field corn (Zea mays L., var. Dekalb 535, CORN); test: Pre-emerge test, crop safety; settings: pre-emerge, 14 days after application, scale 0-100
Outline: (§2)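 Compounds in acetone were track-sprayed at 187 l/ha, 15–1000 g ai/ha, onto sandy loam pots. Pre-emerge seeds were sown one day before spraying, with surface watering afterwards. Post-emerge plants were at the 2–3 leaf stage and sprayed with 0.25% v/v non-ionic surfactant. Injury was rated 0–100 at 14 days.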

[11] = system: upland rice (Oryza sp., var. Tebonnet, RICE); test: Pre-emerge test, crop safety; settings: pre-emerge, 14 days after application, scale 0-100
Outline: as §2

[12] = system: barnyardgrass (Echinochloa crus-galli, ECHCG); test: Post-emerge test, greenhouse herbicide activity screening; settings: post-emerge, 14 days after application, rating scale 0-100
Outline: as §1

[13] = system: common ragweed (Ambrosia artemisizfolia L., AMBEL); test: as above; settings: post-emerge, 14 days after application, rating scale 0-100
Outline: as §1

[14] = system: green foxtail (Setaria viridis, SETVI); test: as above; settings: post-emerge, 14 days after application, rating scale 0-100
Outline: as §1

[15] = system: ivyleaf morningglory (Ipomoea hederacea, IPOHE); test: as above; settings: post-emerge, 14 days after application, rating scale 0-100
Outline: as §1

[16] = system: johnsongrass (Sorghum halepense, SORHA); test: as above; settings: post-emerge, 14 days after application, rating scale 0-100
Outline: as §1

[17] = system: lambsquarters (Chenopodium album, CHEAL); test: as above; settings: post-emerge, 14 days after application, rating scale 0-100
Outline: as §1

[18] = system: large crabgrass (Digitaria sanguinalis, DIGSA); test: as above; settings: post-emerge, 14 days after application, rating scale 0-100
Outline: as §1

[19] = system: redroot pigweed (Amaranthus retroflexus, AMARE); test: as above; settings: post-emerge, 14 days after application, rating scale 0-100
Outline: as §1

[20] = system: sicklepod (Cassia obtusifolia, CASOB); test: as above; settings: post-emerge, 14 days after application, rating scale 0-100
Outline: as §1

[21] = system: velvetleaf (Abutilon theophrasti, ABUTH); test: as above; settings: post-emerge, 14 days after application, rating scale 0-100
Outline: as §1

[22] = system: field corn (Zea mays L., var. Dekalb 535, CORN); test: Post-emerge test, crop safety; settings: post-emerge, 14 days after application, rating scale 0-100
Outline: as §1

[23] = system: upland rice (Oryza sp., var. Tebonnet, RICE); test: Post-emerge test, crop safety; settings: post-emerge, 14 days after application, rating scale 0-100
Outline: as §1

COc1c(Cl)cc(F)c(-n2c(=O)cc(C(F)(F)F)n(C)c2=O)c1NC(=O)c1ccc2cccc(F)c2c1 [2-161]
phytotoxicity rating AMARE ([1]; 63 g ai/ha): 100 | phytotoxicity rating AMARE ([1]; 250 g ai/ha): 100 | phytotoxicity rating ECHCG ([2]; 63 g ai/ha): 90 | phytotoxicity rating ECHCG ([2]; 250 g ai/ha): 99 | phytotoxicity rating SETVI ([3]; 63 g ai/ha): 100 | phytotoxicity rating SETVI ([3]; 250 g ai/ha): 100 | phytotoxicity rating IPOHE ([4]; 63 g ai/ha): 20 | phytotoxicity rating IPOHE ([4]; 250 g ai/ha): 90 | phytotoxicity rating SORHA ([5]; 63 g ai/ha): 0 | phytotoxicity rating SORHA ([5]; 250 g ai/ha): 30 | phytotoxicity rating CHEAL ([6]; 63 g ai/ha): 100 | phytotoxicity rating CHEAL ([6]; 250 g ai/ha): 100 | phytotoxicity rating DIGSA ([7]; 63 g ai/ha): 95 | phytotoxicity rating DIGSA ([7]; 250 g ai/ha): 100 | phytotoxicity rating CASOB ([8]; 63 g ai/ha): 0 | phytotoxicity rating CASOB ([8]; 250 g ai/ha): 50 | phytotoxicity rating ABUTH ([9]; 63 g ai/ha): 100 | phytotoxicity rating ABUTH ([9]; 250 g ai/ha): 100 | phytotoxicity rating CORN (crop damage) ([10]; 63 g ai/ha): 0 | phytotoxicity rating CORN (crop damage) ([10]; 250 g ai/ha): 0 | phytotoxicity rating RICE (crop damage) ([11]; 63 g ai/ha): 0 | phytotoxicity rating RICE (crop damage) ([11]; 250 g ai/ha): 40 | ECHCG phytotoxicity rating ([12]; 63 g ai/ha): 20 | ECHCG phytotoxicity rating ([12]; 250 g ai/ha): 60 | AMBEL phytotoxicity rating ([13]; 63 g ai/ha): 30 | AMBEL phytotoxicity rating ([13]; 250 g ai/ha): 100 | SETVI phytotoxicity rating ([14]; 63 g ai/ha): 0 | SETVI phytotoxicity rating ([14]; 250 g ai/ha): 20 | IPOHE phytotoxicity rating ([15]; 63 g ai/ha): 100 | IPOHE phytotoxicity rating ([15]; 250 g ai/ha): 100 | SORHA phytotoxicity rating ([16]; 63 g ai/ha): 0 | SORHA phytotoxicity rating ([16]; 250 g ai/ha): 30 | CHEAL phytotoxicity rating ([17]; 63 g ai/ha): 100 | CHEAL phytotoxicity rating ([17]; 250 g ai/ha): 100 | DIGSA phytotoxicity rating ([18]; 63 g ai/ha): 0 | DIGSA phytotoxicity rating ([18]; 250 g ai/ha): 50 | AMARE phytotoxicity rating ([19]; 63 g ai/ha): 100 | AMARE phytotoxicity rating ([19]; 250 g ai/ha): 100 | CASOB phytotoxicity rating ([20]; 63 g ai/ha): 100 | CASOB phytotoxicity rating ([20]; 250 g ai/ha): 100 | ABUTH phytotoxicity rating ([21]; 63 g ai/ha): 100 | ABUTH phytotoxicity rating ([21]; 250 g ai/ha): 100 | CORN phytotoxicity rating (crop damage) ([22]; 63 g ai/ha): 0 | CORN phytotoxicity rating (crop damage) ([22]; 250 g ai/ha): 20 | RICE phytotoxicity rating (crop damage) ([23]; 63 g ai/ha): 20 | RICE phytotoxicity rating (crop damage) ([23]; 250 g ai/ha): 70
